Measurements reported in ChEMBL document CHEMBL4118131, “Synthesis of 1,2,4-triazole-linked urea/thiourea conjugates as cytotoxic and apoptosis inducing agents” (Bioorg Med Chem Lett, 2018).
Active and inactive are the calls of the source. The rule behind the calls is not given here.

How the values were obtained:
MCF7 [1] = experiment: Induction of late apoptosis in human MCF7 cells at 12 uM incubated for 48 hrs by AO/EB staining staining based fluorescence microscopy; type: functional, cell-based
MCF7 [2] = experiment: Induction of apoptotic nuclear morphological changes in human MCF7 cells assessed as induction of cell shrinkage and round shape cells at 4 to 8 uM incubated for 48 hrs by DAPI nuclear staining based fluorescence microscopy; type: functional
MCF7 [3] = experiment: Induction of apoptotic nuclear morphological changes in human MCF7 cells assessed as induction of horse shoe shaped nucleus at 12 uM incubated for 48 hrs by DAPI nuclear staining based fluorescence microscopy; type: functional, cell-based
MCF7 [4] = experiment: Induction of apoptosis in human MCF7 cells incubated for 48 hrs by Annexin V and propidium iodide staining based flow cytometry (reference value: 7.4%); type: functional, cell-based
MCF7 [5] = experiment: Induction of cell cycle arrest in human MCF7 cells assessed as accumulation at subG1 phase at 8 uM incubated for 48 hrs by propidium iodide staining based flow cytometry (reference value: 0.88%); type: functional
MCF7 [6] = experiment: Induction of cell cycle arrest in human MCF7 cells assessed as accumulation at G2/M phase at 8 uM incubated for 48 hrs by propidium iodide staining based flow cytometry (reference value: 32.51%); type: functional
MCF7 [7] = experiment: Induction of apoptosis in human MCF7 cells assessed as viable cells level at 4 uM incubated for 48 hrs by Annexin V and propidium iodide staining based flow cytometry (reference value: 80.6%); type: functional
B16-F10 = experiment: Cytotoxicity in mouse B16/F10 cells assessed as reduction in cell viability incubated for 48 hrs by MTT assay; type: functional, cell-based; settings: B16-F10, 48 h
DU-145 = experiment: Cytotoxicity in human DU145 cells assessed as reduction in cell viability incubated for 48 hrs by MTT assay; type: functional, cell-based; settings: DU-145, 48 h
MCF7 [8] = experiment: Induction of apoptosis in human MCF7 cells assessed as early apoptosis cells level at 4 uM incubated for 48 hrs by Annexin V and propidium iodide staining based flow cytometry (reference value: 11.54%); type: functional
MCF7 [9] = experiment: Induction of apoptosis in human MCF7 cells assessed as necrotic cells level at 4 uM incubated for 48 hrs by Annexin V and propidium iodide staining based flow cytometry (reference value: 0.46%); type: functional
MCF7 [10] = experiment: Induction of apoptosis in human MCF7 cells assessed as early apoptosis cells level at 12 uM incubated for 48 hrs by Annexin V and propidium iodide staining based flow cytometry (reference value: 11.54%); type: functional
MCF7 [11] = experiment: Induction of apoptotic morphological changes in human MCF7 cells assessed as induction of chromatin condensation at 8 uM incubated for 48 hrs by AO/EB staining staining based fluorescence microscopy; type: functional, cell-based
MDA-MB-231 = experiment: Cytotoxicity in human MDA-MB-231 cells assessed as reduction in cell viability incubated for 48 hrs by MTT assay; type: functional, cell-based; settings: MDA-MB-231, 48 h
MCF7 [12] = experiment: Induction of apoptosis in human MCF7 cells assessed as necrotic cells level at 8 uM incubated for 48 hrs by Annexin V and propidium iodide staining based flow cytometry (reference value: 0.46%); type: functional
[13] = Selectivity index, ratio of IC50 for cytotoxicity in human L-132 cells to IC50 for cytotoxicity in human MCF7 cells; type: toxicity, cell-based; settings: L-132 cells and MCF7 cells, read-out: Ratio IC50
MCF7 [14] = experiment: Induction of apoptotic morphological changes in human MCF7 cells assessed as induction of membrane blebbing at 8 uM incubated for 48 hrs by AO/EB staining staining based fluorescence microscopy; type: functional, cell-based
MCF7 [15] = experiment: Induction of apoptotic morphological changes in human MCF7 cells assessed as induction of DNA fragmentation at 8 uM incubated for 48 hrs by AO/EB staining staining based fluorescence microscopy; type: functional, cell-based
MCF7 [16] = experiment: Inhibition of colony formation in human MCF7 cells assessed as reduction in colony count incubated for 24 hrs by crystal violet staining based clonogenic cell reproduction assay; type: functional
L132 = experiment: Cytotoxicity in human L-132 cells assessed as reduction in cell viability incubated for 48 hrs by MTT assay; type: cell-based; settings: L132, 48 h
MCF7 [17] = experiment: Induction of apoptosis in human MCF7 cells assessed as late apoptosis cells level at 4 uM incubated for 48 hrs by Annexin V and propidium iodide staining based flow cytometry (reference value: 7.4%); type: functional
MCF7 [18] = experiment: Induction of cell cycle arrest in human MCF7 cells assessed as accumulation at G0/G1 phase at 8 uM incubated for 48 hrs by propidium iodide staining based flow cytometry (reference value: 53.01%); type: functional
MCF7 [19] = experiment: Induction of apoptotic morphological changes in human MCF7 cells assessed as induction of membrane blebbing at 4 uM incubated for 48 hrs by AO/EB staining staining based fluorescence microscopy; type: functional, cell-based
MCF7 [20] = experiment: Induction of apoptosis in human MCF7 cells assessed as viable cells level at 8 uM incubated for 48 hrs by Annexin V and propidium iodide staining based flow cytometry (reference value: 80.6%); type: functional
MCF7 [21] = experiment: Induction of apoptosis in human MCF7 cells assessed as necrotic cells level at 12 uM incubated for 48 hrs by Annexin V and propidium iodide staining based flow cytometry (reference value: 0.46%); type: functional
MCF7 [22] = experiment: Induction of cell cycle arrest in human MCF7 cells assessed as accumulation at S phase at 8 uM incubated for 48 hrs by propidium iodide staining based flow cytometry (reference value: 12.28%); type: functional
MCF7 [23] = experiment: Induction of apoptosis in human MCF7 cells assessed as late apoptosis cells level at 8 uM incubated for 48 hrs by Annexin V and propidium iodide staining based flow cytometry (reference value: 7.4%); type: functional
MCF7 [24] = experiment: Induction of cell cycle arrest in human MCF7 cells assessed as accumulation at S phase at 4 uM incubated for 48 hrs by propidium iodide staining based flow cytometry (reference value: 12.28%); type: functional
MCF7 [25] = experiment: Induction of cell cycle arrest in human MCF7 cells assessed as accumulation at subG1 phase at 4 uM incubated for 48 hrs by propidium iodide staining based flow cytometry (reference value: 0.88%); type: functional
MCF7 [26] = experiment: Induction of apoptotic nuclear morphological changes in human MCF7 cells incubated for 48 hrs by DAPI nuclear staining based fluorescence microscopy; type: functional, cell-based
MCF7 [27] = experiment: Induction of cell cycle arrest in human MCF7 cells assessed as accumulation at G0/G1 phase at 4 uM incubated for 48 hrs by propidium iodide staining based flow cytometry (reference value: 53.01%); type: functional
MCF7 [28] = experiment: Induction of cell cycle arrest in human MCF7 cells assessed as accumulation at G2/M phase at 4 uM incubated for 48 hrs by propidium iodide staining based flow cytometry (reference value: 32.51%); type: functional
MCF7 [29] = experiment: Induction of apoptosis in human MCF7 cells assessed as late apoptosis cells level at 12 uM incubated for 48 hrs by Annexin V and propidium iodide staining based flow cytometry (reference value: 7.4%); type: functional
A549 = experiment: Cytotoxicity in human A549 cells assessed as reduction in cell viability incubated for 48 hrs by MTT assay; type: functional, cell-based; settings: A549, 48 h
MCF7 [30] = experiment: Induction of apoptosis in human MCF7 cells assessed as viable cells level at 12 uM incubated for 48 hrs by Annexin V and propidium iodide staining based flow cytometry (reference value: 80.6%); type: functional
MCF7 [31] = experiment: Induction of apoptosis in human MCF7 cells assessed as early apoptosis cells level at 8 uM incubated for 48 hrs by Annexin V and propidium iodide staining based flow cytometry (reference value: 11.54%); type: functional
MCF7 [32] = experiment: Induction of apoptotic nuclear morphological changes in human MCF7 cells assessed as induction of DNA fragmentation at 12 uM incubated for 48 hrs by DAPI nuclear staining based fluorescence microscopy; type: functional, cell-based
MCF7 [33] = experiment: Cytotoxicity in human MCF7 cells assessed as reduction in cell viability incubated for 48 hrs by MTT assay; type: functional, cell-based; settings: MCF7, 48 h

N#Cc1ccc(CN(C(=S)Nc2cc(C(F)(F)F)cc(C(F)(F)F)c2)n2cnnc2)cc1
Activity (MCF7 [1]): Active | Activity (MCF7 [2]): Active | Activity (MCF7 [3]): Active | Activity (MCF7 [4]): Dose-dependent effect | Activity (MCF7 [5]): 3.57% | Activity (MCF7 [6]): 14.34% | Activity (MCF7 [7]): 62.98% | IC50 (B16-F10): 4.51 µM | IC50 (DU-145): 11.8 µM | Activity (MCF7 [8]): 9.63% | Activity (MCF7 [9]): 2.78% | Activity (MCF7 [10]): 7.53% | Activity (MCF7 [11]): Active | IC50 (MDA-MB-231): 9.28 µM | Activity (MCF7 [12]): 2.78% | selectivity ratio [13]: 2 | Activity (MCF7 [14]): Active | Activity (MCF7 [15]): Active | inhibition (MCF7 [16]): Dose-dependent effect | IC50 (L132): 15.2 µM | Activity (MCF7 [17]): 24.61% | Activity (MCF7 [18]): 69.97% | Activity (MCF7 [19]): Active | Activity (MCF7 [20]): 62.98% | Activity (MCF7 [21]): 9.26% | Activity (MCF7 [22]): 10.13% | Activity (MCF7 [23]): 24.61% | Activity (MCF7 [24]): 11.33% | Activity (MCF7 [25]): 1.18% | Activity (MCF7 [26]): Dose-dependent effect | Activity (MCF7 [27]): 61.18% | Activity (MCF7 [28]): 25.01% | Activity (MCF7 [29]): 38.35% | IC50 (A549): 9.39 µM | Activity (MCF7 [30]): 44.86% | Activity (MCF7 [31]): 9.63% | Activity (MCF7 [32]): Active | IC50 (MCF7 [33]): 7.22 µM
